Test results reported in article PMC6154605, “Multi-Anti-Parasitic Activity of Arylidene Ketones and Thiazolidene Hydrazines against Trypanosoma cruzi and Leishmania spp” (Molecules : A Journal of Synthetic Chemistry and Natural …, 2017).
Read-outs that look alike come from different tables or passages of the source. Marks after values point to notes of the source that are not given here.

Columns and labels:
[1] = system: T. cruzi epimastigotes, Tulahuen 2 strain (genotype TcVI); assay: In vitro anti-T. cruzi activity, growth inhibition of epimastigotes; format: cell-based, Trypanosoma cruzi; conditions: ratio IC50 mammalian cell / IC50 parasite (epimastigotes)
Experimental: For the in vitro anti-T. cruzi activity, we used epimastigotes of the Tulahuen 2 strain (genotype TcVI) grown in an axenic milieu (BHI-Tryptose). Cells from a 5–7-day-old culture were inoculated in fresh culture milieu to give an initial concentration of 1.00 × 10^6 cells/mL. The absorbance at 600 nm of the cells in culture was measured every day. At Day 5, the milieu was inoculated with different quantities of the compounds from a stock solution in DMSO (DMSO concentration in the culture milieu never exceeded 0.4%). The control was made in the presence of 0.4% DMSO and in the absence of compounds. Each concentration of compound was evaluated in duplicate. At Day 5, the absorbance of the culture was measured and related to the control. […] Each antiproliferative experiment was done in duplicate, and each concentration was tested in triplicate.

[2] = system: L. braziliensis promastigotes; assay: Leishmanicidal activity on promastigotes, resazurin; format: cell-based, Leishmania braziliensis; conditions: for IC50: Leishmania braziliensis, 48 h, read-out: IC50 ± SD Promastigotes L. braziliensis; for SI NCTC/ L. braziliensis: ratio IC50 mammalian cell / IC50 parasite (promastigotes)
From the text: (§1) We initially selected compounds previously reported to have anti-T. cruzi activity from our chemical library to evaluate their leishmanicidal activity. […]. To evaluate their activity in Leishmania spp., we performed a phenotypic screening using the promastigote form of L. infantum (MHOM/FR/91/LEM-2259) and L. braziliensis ([…]) (Table 1A for the thiazolidenehydrazine derivate and Table 1B for the arylideneketones family).
(§2) A culture of L. braziliensis (MHOM/BR/75/M2904) and L. infantum (MHOM/FR/91/LEM2259V) was obtained from the Facultad de Farmacia (Universidad Complutense, Madrid, Spain). The maintenance of the strains, the form of cultivation and the isolation of the shape of the promastigote were performed following the procedures described by Roldos et al.. The promastigotes were grown at 22 °C in Schneider’s Drosophila medium supplemented with 20% FBS. The assay was performed using a modification of a previous method. Promastigotes (2 × 10^6 parasites/well) were cultivated in 96-well plastic plates. Compounds were dissolved in dimethylsulfoxide (DMSO). Different dilutions of the compounds with a final volume up to 200 µL were added. After 48 h at 26 °C, 20 µL of a 2 mM resazurin solution were added, and the oxidation-reduction was quantified at 570 and 600 nm. The solution of resazurin was prepared at 2.5 mM in phosphate buffered solution (PBS), pH 7.4, and filtered through 0.22-µm membranes prior to use. All tests were carried out in triplicate. Resazurin sodium salt was obtained from Sigma-Aldrich (St. Louis, MO, USA) and stored at 4 °C protected from light. The efficacy of each compound was estimated by calculating the IC50 values. Each antiproliferative experiment was done in duplicate, and each concentration was tested in triplicate.

[3] = system: L. infantum promastigotes; assay: as above; format: cell-based, Leishmania infantum; conditions: for IC50: Leishmania infantum, 48 h, read-out: IC50 ± SD Promastigotes L. infantum; for SI NCTC/ L. infantum: ratio IC50 mammalian cell / IC50 parasite (promastigotes)
From the text: as §1, §2

NCTC929 fibroblasts = assay: Nonspecific cytotoxicity on fibroblasts, resazurin; format: cell-based; conditions: NCTC-929, 24 h; read-out: IC50 ± SD Fibroblast NCTC929
Experimental: To establish the selectivity of the compounds against the parasites, nonspecific cytotoxicity against mammalian cells, using J774.1 murine macrophages and fibroblast NCTC929, was studied for the most relevant derivatives. The selectivity indexes were calculated as the ratio between cytotoxicity for mammalian cells and the anti-parasitic activity (Table 2).
NCTC-Clone 929 were grown in minimal essential medium (Sigma) supplemented with 10% heat-inactivated FBS, penicillin G (100 U/mL) and streptomycin (100 µg/mL). Cell cultures were maintained at 37 °C in a humidified 5% CO2 atmosphere. The procedure for cell viability measurement was evaluated with resazurin by a colorimetric method. The cells were plated in 96 microtiter plates at 3.00 × 10^4 cells/well in 100 µL growth medium. The cells were grown overnight at 37 °C, 5% CO2. Thereafter, the medium was removed, and the compounds were added to 200 µL of medium for 24 h. After incubation, 20 µL of a 2 mM resazurin solution were added to each well. The plates were incubated for 3 h to allow optimal oxidation-reduction. The reduction of resazurin was determined by dual wavelength absorbance measurement at 490 and 595 nm. The background was subtracted. Each concentration was assayed three times. Medium and drug controls were used in each test as blanks.

[4] = molecular target: T1, LmTIM (triosephosphate isomerase from Leishmania mexicana) (Leishmania mexicana, UniProt P48499); assay: Inhibition of triosephosphate isomerase; format: biochemical; conditions: for inhibition at 100 µM: read-out: Percentage of Inhibition LmTIM
T1 construct: made in house; host or cells: Escherichia coli
Experimental: Compounds were dissolved in DMSO. […] The experiments were performed in triplicate.

cruzipain [5] = molecular target: T2, cruzipain (Trypanosoma cruzi, UniProt P25779); assay: Inhibition of T. cruzi cruzipain; format: biochemical
Experimental: Cruzipain was purified to homogeneity from epimastigotes of the Tulahuen 2 strain by ConA–Sepharose affinity chromatography, as previously described. Cruzipain (2.5 μM ε = 58,285 M^−1cm^−1) was incubated in 50 mM acetate buffer pH 5.5 with 5 mM DTT, and 100 μM inhibitor were added, shaking the solution for 15 min at 27 °C. The derivatives were added as solutions in DMSO, and the controls contained the same solvent concentration. The concentration of DMSO never exceeded 1% in the reaction medium. L-leucylam-ido(4-guanidino)butane (E-64) was used as a positive control of inhibition. Then, the fluorogenic substrate Z-Phe-Arg 7-amido-4-methylcoumarin hydrochloride (Z-Phe-Arg-AMC) at 10 μM was added, and the fluorescence was measured during 10 min at intervals of 3 s (excitation at 380 nm and emission at 460 nm) using a Varioskan Flash Spectrophotometer. From the slope of the negative control, we calculated the total (100%) enzyme activity, while the slopes obtained in the presence of the compounds yielded the percentage of remaining enzyme activity. The percentage of enzyme inhibition was determined as […]. The experiments were done in duplicate.

zebrafish embryos = assay: Zebrafish embryo toxicity test (LD50)
Experimental: […] Only embryos that were clearly undamaged after 60 min of observation were kept and subsequently used. Dechorionated embryos were further manipulated using flame-rounded tip glass Pasteur pipettes. […] In all cases, the embryos were incubated in system water with 1% DMSO (negative control) and the compound at different doses between 8 and 96 hpf. The treatment solution was changed daily. […] At selected time points, namely 24, 48, 72 and 96 hpf, embryotoxicity (= mortality) and morphological characteristics of the embryos were evaluated using a Nikon SMZ800 stereomicroscope. The embryos were evaluated for the presence and morphological development (as appropriate) of somites, tail detachment, eyes, heart beat and blood circulation. All individuals were evaluated at all time points.

[6] = system: T. cruzi epimastigotes, Tulahuen 2 strain (genotype TcVI); conditions: cited from earlier work; for IC50: read-out: IC50 ± SD Epimastigotes T. cruzi; for SI J774.1/ T. cruzi: ratio IC50 mammalian cell / IC50 parasite (epimastigotes)
[7] = system: J774.1 murine macrophages; conditions: read-out: IC50 ± SD Murine Macrophages, cited from earlier work
T. cruzi amastigotes = system: T. cruzi amastigotes; design: method as in PMID 26492824, PMID 24749923, doi:10.1039/C6RA27851E; conditions: 5 µM, 72 h; cited from earlier work
T. cruzi = conditions: 100 mg/kg body weight in mice, acute model; cited from earlier work
[8] = molecular target: T3, triosephosphate isomerase from T. cruzi (TcTIM) (Trypanosoma cruzi, UniProt P52270); assay: Inhibition of triosephosphate isomerase; conditions: read-out: Percentage of Inhibition TcTIM
Experimental: Expression and purification of proteins: TcTIM, LmTIM and HsTIM were expressed in Escherichia coli and purified as described in the literature [39]. […] Before use, extensive dialysis against 100 mM triethanolamine/10 mM EDTA (pH 7.4) was performed.
Enzymatic activity assays: Enzymatic activity was determined following the conversion of glyceraldehyde 3-phosphate into dihydroxyacetone phosphate. […] The reaction mixture (1 mL, pH 7.4) contained 100 mM triethanolamine, 10 mM EDTA, 0.2 mM NADH, 1 mM glyceraldehyde 3-phosphate and 0.9 units of α-glycerol phosphate dehydrogenase. The reaction was initiated by the addition of 5 ng/mL of the TcTIM.
The mixture also contained the compounds at the indicated concentrations. Compounds were dissolved in DMSO. After 2 h, 10 µL was withdrawn and added to a final volume of 100 µL of the reaction mixture for the activity assay. The inhibition assay was performed in a 96-well microplate Varioskan spectrophotometer. […] The experiments were performed in triplicate.

[9] = system: L. braziliensis promastigotes; design: method as in PMID 24749923; conditions: footnote c; read-out: IC50 ± SD Promastigotes L. braziliensis; cited from earlier work
cruzipain [10] = molecular target: T2, cruzipain; conditions: at 100 µM; cited from earlier work
[11] = molecular target: T3, triosephosphate isomerase from T. cruzi (TcTIM); design: made in house; host or cells: Escherichia coli; conditions: at 100 µM; cited from earlier work
[12] = system: L. infantum promastigotes; design: method as in PMID 11913540; conditions: superscript b printed; previously reported compound; read-out: IC50 ± SD Promastigotes L. infantum; cited from earlier work

T2 sequence (P25779 123-467): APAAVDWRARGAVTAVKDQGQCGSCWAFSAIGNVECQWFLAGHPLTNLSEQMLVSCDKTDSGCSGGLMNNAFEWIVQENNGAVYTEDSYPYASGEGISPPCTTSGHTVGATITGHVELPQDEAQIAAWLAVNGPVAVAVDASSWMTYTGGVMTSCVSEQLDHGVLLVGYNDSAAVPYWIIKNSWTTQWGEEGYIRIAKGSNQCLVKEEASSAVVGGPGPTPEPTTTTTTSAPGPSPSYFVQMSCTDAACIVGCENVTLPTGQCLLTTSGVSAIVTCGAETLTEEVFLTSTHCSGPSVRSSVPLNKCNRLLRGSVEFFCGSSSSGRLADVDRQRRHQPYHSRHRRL
T1 sequence (P48499 whole entry): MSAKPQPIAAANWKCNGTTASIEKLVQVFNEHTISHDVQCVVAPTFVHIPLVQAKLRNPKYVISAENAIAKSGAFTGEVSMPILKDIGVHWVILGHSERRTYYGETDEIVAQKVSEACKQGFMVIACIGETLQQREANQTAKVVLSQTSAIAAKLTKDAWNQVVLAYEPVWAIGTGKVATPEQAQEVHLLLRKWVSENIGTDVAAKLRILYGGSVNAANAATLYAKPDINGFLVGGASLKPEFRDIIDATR
T3 sequence (P52270 whole entry): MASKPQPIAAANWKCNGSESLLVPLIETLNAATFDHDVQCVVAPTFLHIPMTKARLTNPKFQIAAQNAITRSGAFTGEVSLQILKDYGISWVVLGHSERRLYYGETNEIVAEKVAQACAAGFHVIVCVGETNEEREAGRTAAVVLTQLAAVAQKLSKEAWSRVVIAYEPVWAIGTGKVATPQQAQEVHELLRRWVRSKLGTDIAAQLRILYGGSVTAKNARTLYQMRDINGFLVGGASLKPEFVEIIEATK

| Structure (SMILES) | SI J774.1/ T. cruzi [1] | IC50 [2] [µM] | SI NCTC/ L. braziliensis [2] | IC50 [3] [µM] | SI NCTC/ L. infantum [3] | IC50 (NCTC929 fibroblasts) [µM] | inhibition at 100 µM [4] [%] | IC50 [6] [µM] | IC50 ([7]; J774.1) [µM] | IC50 [7] [µM] | SI J774.1/ T. cruzi [6] | Percentage of Inhibition Cruzipain (cruzipain [10]) | Percentage of Inhibition TcTIM [11] | other results |
| --- | --- | --- | --- | --- | --- | --- | --- | --- | --- | --- | --- | --- | --- | --- |
| C=CCn1c(C(=O)N2CCN(C/C=C/c3ccccc3)CC2)cs\c1=N/N=C/C=C/c1ccco1 [HIT1] | 10 | 12 ± 5 | 29 | 4 ± 1 | 87 | 346 ± 9 | 0 | 3.1 ± 0.2 | 30 ± 5 |  |  |  |  | inhibition at 100 µM (cruzipain [5]; at 100 µM, read-out: Percentage of Inhibition Cruzipain): 100%; IC50 (cruzipain [5]; pool of cruzipain isoforms obtained from T. cruzi, read-out: IC50 ± SD Cruzipain): 4.3 µM; LD50 without chorion (zebrafish embryos; dechorionated zebrafish embryos, 72 h incubation): 61 ± 2 µM; LD50 with chorion (zebrafish embryos; zebrafish embryos with chorion): > 100 µM; Amastigotes in infected Vero cell culture after treatment (T. cruzi amastigotes): cytosol without amastigotes; Reduction of the parasitemia (T. cruzi): 70%; inhibition at 100 µM [8]: 0% |
| O=C1/C(=C/c2cccc3cnccc23)CC/C1=C\c1cccc2cnccc12 [Comp13, reference compound] | 1 |  | 23 |  |  |  |  | 31 ± 2 |  | 21 ± 5 |  |  |  | IC50 [9]: 900 ± 200 nM |
| O=C(/C=C/c1cccs1)/C=C/c1cccs1 [EA138] |  | 8 ± 2 | 20 | 4 ± 0.5 | 40 | 158 ± 5 | 100 | 5 ± 0.8 | 38 ± 7 |  | 8 ^c | 50/- ^d | 0/- ^d | IC50 ([4]; read-out: IC50 ± SD LmTIM): < 25 µM |
| COc1cc(/C=C/C(=O)CC(=O)/C=C/c2ccc(O)c(OC)c2)ccc1O [Curcumin, reference compound] | 2 |  | 2 |  |  |  |  | 5.6 ± 1 |  | 10 ± 2 |  |  |  | IC50 [12]: 5.9 ± 0.3 µM |
| O=C(/C=C/C=C/c1ccco1)/C=C/C=C/c1ccco1 [EA128] |  | 36 ± 9 | 14 | 31 ± 9 | 16 | 494 ± 25 | 0 | 5 ± 0.7 | 60 ± 3 |  | 12 ^c | 48/- ^d | 100 |  |
